Experimental data from patent US20260265055A1, “Sulfine-Based Compounds for Generating Hydrogen Persulfide” (Brown University, priority 2023, published 2026).

Legend:
[1] = Monitoring H2S2 formation from the TTS-TAGDD hybrid compound 3 (SSP4, 12 h); details: over 12 hours
Protocol: Monitoring H2S2 formation from the TTS-TAGDD hybrid compound 3: TTS and 3 were prepared as 1 mM solutions in DMSO. L-cysteine and Na2S2 were prepared at 4 mM and 1 mM in MilliQ H2O, respectively. SSP4 was dissolved in DMSO to obtain a 200 μM stock solution. CTAB was dissolved in ethanol to yield a 2 mM stock solution. 50 mM PBS buffer (pH 7.4) was added to individual wells of a black polystyrene, flat-bottomed clear 96-well plate, followed by TTS (25 μM) or 3 (25 μM) then cysteine (100 μM) or Na2S2 (25 μM). Samples were mixed by pipetting up and down and incubated in the dark at room temperature (rt) for 30 min. Next, CTAB (50 μM) was added to all wells followed by SSP4 (5 μM), and samples were mixed by pipetting up and down. Samples were then incubated in the dark at room temperature for another 30 min before being measured on a Molecular Devices SpectraMax iD3 Multi-Mode Microplate Reader (fluorescence mode; kinetics measurement type; emission 535 nm; excitation 485 nm; integration time […], low PMT sensitivity, attenuation 1, read height 1.00 mm; total run time: 12 hours; 25 cycles; interval: 0.5 hours). Data was graphed as a time dependent fluorescence response, with F0 as the SSP4 only condition. The fluorescence of Na2S2 over time was not represented in the line graph presented due to the compound's known instability. Data obtained from the 12 h time point including from Na2S2 was also represented in a bar graph for greater clarity. Results were expressed as mean±SEM (n=3).

[2] = molecular target: T1, GAPDH (Oryctolagus cuniculus, UniProt P46406); assay: GAPDH protein S-persulfidation (SSP4 fluorescence, LC-MS/MS); assay type: biochemical, rabbit; details: reduced GAPDH 100 μM treated with the reagent only (1 mM)
T1 construct: GAPDH (from rabbit muscle, #G2267, Sigma-Aldrich); purchased Sigma-Aldrich G2267; host or cells: rabbit muscle (tissue-purified)
T1 sequence (P46406 whole entry): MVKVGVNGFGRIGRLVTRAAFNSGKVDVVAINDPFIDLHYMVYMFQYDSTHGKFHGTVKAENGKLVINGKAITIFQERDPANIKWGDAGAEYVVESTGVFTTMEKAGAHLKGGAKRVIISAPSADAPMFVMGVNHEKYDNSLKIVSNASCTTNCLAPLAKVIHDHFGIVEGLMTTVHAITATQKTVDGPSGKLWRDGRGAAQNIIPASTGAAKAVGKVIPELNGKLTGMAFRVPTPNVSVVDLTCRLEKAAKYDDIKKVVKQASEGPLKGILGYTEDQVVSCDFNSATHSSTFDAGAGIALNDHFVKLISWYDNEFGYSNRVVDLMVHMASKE
Protocol: One of the primary functions of H2S2 is to induce protein S-persulfidation. Existing methods treat proteins with Na2S2 directly to obtain the persulfidated proteins. The present disclosure contemplates the use of TTS and H2S to persulfidate proteins as a comparison with Na2S2. GAPDH was used as the protein model and its persulfidation was evaluated by SSP4 using a protocol described in Shieh, M. et al., Shining a light on SSP4: a comprehensive analysis and biological applications for the detection of sulfane sulfurs. Redox Biol. 2022, 56, 102433 and Ni, X. et al., A sweet H2S/H2O2 dual release system and specific protein S-persulfidation mediated by thioglucose/glucose oxidase. J. Am. Chem. Soc. 2021, 143, 13325-13332. Reduced GAPDH (100 μM) was individually treated with 10 eq. of TTS+Na2S or Na2S2, as well as control reagents (TTS or Na2S only). The protein samples were then purified using Zeba Spin Desalting Columns (7K MWCO), diluted (to 10 μM), and treated with SSP4 (5 μM). Fluorescence signals were recorded to reflect persulfidation levels. […] To provide further evidence of persulfidation in the GAPDH system, TTS+Na2S-treated GAPDH was alkylated with HPE-IAM to stabilize the protein persulfides.
216 μL of PBS (50 mM, pH 7.4) was added to 3.9 mg of GAPDH (from rabbit muscle, #G2267, Sigma-Aldrich) to obtain a concentration of 500 μM (MW: 36 kDa). DTT (10 mM in DMSO, 11.35 μL) was added for a final equal concentration with the GAPDH. The solution was incubated in the dark at room temperature for 30 min. Zeba 7K MWCO spin columns were prepared and used according to manufacturer's instructions with 3 PBS washes. Excess reductant was removed by column purification with the Zeba 7K MWCO columns. The resulting reduced protein concentration was determined by the absorbance at 280 nm (εmM=30.4 mM-1 cm-1) using the Nanodrop One Microvolume UV-Vis Spectrophotometer (ThermoFisher Scientific). For controls, reduced GAPDH was treated with NEM (1:5 equiv.) and incubated at rt in the dark for 30 min before excess NEM was removed by the Zeba 7K MWCO columns. Next, the reduced protein was diluted to a final concentration of 100 μM in a final volume of 100 μL and treated with TTS (10 μL of 10 mM in DMSO for a final concentration of 1 mM), Na2S (10 μL of 10 mM in MilliQ H2O for a final concentration of 1 mM), both TTS and Na2S, or Na2S2 (10 μL of 10 mM in MilliQ H2O for a final concentration of 1 mM). For example, if the reduced protein (361 μM) was only to be treated with TTS, 62.3 μL of PBS (50 mM, pH 7.4) would first be added to an Eppendorf tube, followed by 27.7 μL of protein, and followed by 10 μL of TTS. TTS+Na2S and Na2S2 samples were also prepared at the concentrations above without any protein, where PBS (50 mM, pH 7.4) was used in place of the proteins (volume-wise). Samples were incubated at room temperature for 30 min in the dark before being purified by Zeba 7K MWCO columns (three times to ensure proper removal of excess treatment molecules) and quantified by absorbance. […] All samples were then incubated with SSP4 (5 μL of 100 μM in DMSO for a final concentration of 5 μM) in individual wells of a black clear flat bottom 96-well plate. The final volume was 100 μL. For example, if the persulfidated protein (99.5 μM) was to be examined, 84.95 μL of PBS (50 mM, pH 7.4) would first be added to a well, followed by 10.05 μL of protein, and then followed by 5 μL of SSP4. Incubation occurred at room temperature in the dark for 30 min before being measured on the SpectraMax iD3 microplate reader (ex: 485 nm; em: 525 nm).

[3] = tested on: HeLa cells; assay: Live cell imaging of H2S2 formation with SSP4; assay type: cell-based; details: compound only, 30 min
Protocol: HeLa cells were seeded at ~7000 cells/well in a 96-well clear flat-bottomed BioLite plate (ThermoFisher Scientific, #130188) in DMEM/F12 (1:1) (Gibco, Invitrogen, #11330-032) medium supplemented with 10% fetal bovine serum (FBS) at 37° C., 5% CO2 overnight.
Preparation before cell treatment: Na2S and Na2S2 stocks were prepared at 10 mM in sterile 1×PBS. TTS and TT were prepared at 10 mM concentrations in DMSO. They were then diluted to 50 μM concentrations in serum-free Fluorobrite DMEM in individual Eppendorf tubes (0.5% DMSO). Na2S (final concentration=100 μM) was added to the Eppendorf tube containing Fluorobrite DMEM and TTS or TT immediately before being added to the cells. Compounds were mixed by pipetting up and down prior to cell addition.
Cell treatment: Culturing media was aspirated from all wells, and cells were washed twice with 1×PBS. Compounds were added to cells (200 μL/well) and incubated for 30 min at 37° C., 5% CO2. While cells were incubating, SSP4 treatment was prepared by first adding 5 mM CTAB in ethanol to Fluorobrite DMEM followed by 6.125 mM SSP4 in DMSO to final concentrations of 100 μM and 5 μM, respectively, in a tube. The final volume was 5 mL (0.08% DMSO). Compounds were mixed by pipetting up and down prior to cell addition. After incubation, media was aspirated, and cells were washed twice with 1×PBS. SSP4 treatment was added to all wells (100 μL/well), and cells were incubated for 30 min at 37° C., 5% CO2 for 30 min. Media was then aspirated, and cells were washed three times with 1×PBS. Fluorobrite DMEM was added to all wells before imaging on the Keyence All-in-One Fluorescence Microscope (BZ-X810) (excitation: 470/40 nm; emission: 525/50 nm).
As shown in FIGS. 4(A)-(D), HeLa cells were treated with TTS, TTS+H2S, or TT for 30 min before the fluorescent sensor SSP4 was applied to the cells to monitor the formation of H2S2. […] Na2S2 was used as the positive control in this study (FIG. 4D). Other control studies including TT+H2S, H2S only, and SSP4 only were also performed. […] FIG. 4H is a graph of fluorescence intensities of SSP4 staining. Data are mean values ±SEM calculated using ImageJ. (n=9, where three different images were obtained from each of three samples and quantified).

Row | Structure (SMILES) | H2S2 formation monitored by SSP4 signals ([1]; 25 μM compound + Cys 100 μM) | SSP4 fluorescence ([1]; 25 μM compound only) | SSP4 fluorescence of persulfidated GAPDH [2] | SSP4 fluorescence in HeLa cells [3]
1 | CC(=O)SC(SC(C)=O)c1cccc(OC(=O)c2ccc(=S=O)sc2)c1 [Compound 3] | steady and continuous H2S2 formation | did not give any notable fluorescence |  | 
2 | [Na+].[Na+].[S-][S-] [Na2S2, reference compound] |  |  | strong fluorescence | 
3 | [Na+].[Na+].[S-2] [Na2S, reference compound] |  |  | did not give any notable fluorescence | Obvious fluorescence in these samples was not observed
